The record followed here is patent US20210002231A1 (Centre National de la Recherche Scientifique, priority 2018, published 2021).

Assay [1] deals with T1, NPFF2R (Homo sapiens, UniProt Q9Y5X5). Kind of assay: Radioligand competition binding with [125I]-1-DMe-NPFF. Also noted: expressed in transfected cells; HEK293-Glo20F cells (cAMP). For orientation: Displacement assays read how much labelled ligand stays bound in the presence of the test substance.
Assay [2] addresses T1, NPFF2R. Kind of assay: [35S]-GTPγS binding assay. The class given is biochemical. The arrangement: expressed in transfected cells. The procedure: (§1) Stimulation by endogenous RF-amide peptides or test compounds for [^35S]-GTPγS binding to membranes from CHO cells expressing human NPFF1R or NPFF2R, were examined as reported. 1.6. Glo-Sensor cAMP Assay cAMP accumulation assay was essentially done as described with the following modifications: HEK293 cells stably expressing cAMP Glosensor-20F were used, with or without additional stable expression of each individual opioid receptor or NPFF1R. The cAMP responses were measured in presence of D-luciferin (1 mM).
In general terms: Binding of GTPγS marks nucleotide exchange on a G protein.

The target of assay [3] is T2, human NPFF1R (Homo sapiens, UniProt Q9GZQ6). The assay is described as follows: [35S]-GTPγS binding assay. The class given is biochemical. Also noted: expressed in transfected cells. Conditions: for Emax: relative to RFRP3. On the procedure: as §1
T2 sequence (Q9GZQ6 whole entry): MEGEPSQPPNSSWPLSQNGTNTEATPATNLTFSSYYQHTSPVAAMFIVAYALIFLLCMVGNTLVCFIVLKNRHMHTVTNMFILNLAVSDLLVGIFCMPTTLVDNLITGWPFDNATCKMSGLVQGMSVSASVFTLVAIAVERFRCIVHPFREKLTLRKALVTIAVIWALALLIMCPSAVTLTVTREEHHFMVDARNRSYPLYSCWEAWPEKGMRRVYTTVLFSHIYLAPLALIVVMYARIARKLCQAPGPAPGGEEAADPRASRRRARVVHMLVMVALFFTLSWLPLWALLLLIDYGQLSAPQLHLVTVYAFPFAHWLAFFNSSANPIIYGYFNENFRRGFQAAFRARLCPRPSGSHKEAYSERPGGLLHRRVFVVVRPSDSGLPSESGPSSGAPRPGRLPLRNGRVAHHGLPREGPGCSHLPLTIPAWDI
Assay [4] concerns the target T3, human MOPr (Homo sapiens, UniProt P35372). The assay is described as follows: cell-based. Also noted: expressed in transfected cells; HEK293-Glo20F cells (cAMP). The class given is cell-based. Conditions: for EC50: Table 3a, HEK293-Glo20F-hMOPr cells, read-out: MOPr (cAMP) EC50; for Emax: read-out: MOPr (cAMP) Emax. On the procedure:
as §1

In assay [5] the target is T2, human NPFF1R. Kind of assay: Radioligand competition binding with [125I]-1-DMe-NPFF. Also noted: expressed in transfected cells; HEK293-Glo20F cells (cAMP).
In assay [6] the target is T3, human MOPr. Kind of assay: Radioligand competition binding with [3H]-diprenorphine. Also noted: expressed in transfected cells; HEK293-Glo20F cells (cAMP).

SMILES strings stand for the structures. Starred links: 1 amine or outer side, 2 acyl side, 3 side chain; linkers in the order of their positions; H or OH if unused. Non-standard residues stand in square brackets, D forms with d. Residues, ends and D or L forms follow the SMILES beside them. *: point of attachment. X1 = O=C1[C@@H](N[*:1])Cc2ccccc2CN1CCC(=O)[*:2]; Dmt = Cc1cc(O)cc(C)c1C[C@H](N)C(=O)O; X2 = c1ccc2[nH]c(*)nc2c1; X3 = c1ccc2oc(*)nc2c1; X4 = c1ccc2sc(*)nc2c1 Some results are limits rather than exact numbers.
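For MOPr (cAMP) Emax in this document: Emax relative to DAMGO as 100%.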

T1 sequence (Q9Y5X5 whole entry): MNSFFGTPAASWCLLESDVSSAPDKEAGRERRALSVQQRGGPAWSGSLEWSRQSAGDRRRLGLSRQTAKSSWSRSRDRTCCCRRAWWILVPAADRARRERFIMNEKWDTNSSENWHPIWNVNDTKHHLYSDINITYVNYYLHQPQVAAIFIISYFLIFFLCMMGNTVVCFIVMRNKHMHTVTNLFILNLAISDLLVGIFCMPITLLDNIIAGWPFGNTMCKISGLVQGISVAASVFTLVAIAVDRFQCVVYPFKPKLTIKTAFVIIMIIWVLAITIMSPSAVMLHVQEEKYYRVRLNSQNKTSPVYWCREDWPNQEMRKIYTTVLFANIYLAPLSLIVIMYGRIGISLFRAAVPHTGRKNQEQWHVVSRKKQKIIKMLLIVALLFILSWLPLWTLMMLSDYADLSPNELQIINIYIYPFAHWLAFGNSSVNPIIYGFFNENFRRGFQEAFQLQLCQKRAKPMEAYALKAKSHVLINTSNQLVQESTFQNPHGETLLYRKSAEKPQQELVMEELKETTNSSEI
T3 sequence (P35372 whole entry): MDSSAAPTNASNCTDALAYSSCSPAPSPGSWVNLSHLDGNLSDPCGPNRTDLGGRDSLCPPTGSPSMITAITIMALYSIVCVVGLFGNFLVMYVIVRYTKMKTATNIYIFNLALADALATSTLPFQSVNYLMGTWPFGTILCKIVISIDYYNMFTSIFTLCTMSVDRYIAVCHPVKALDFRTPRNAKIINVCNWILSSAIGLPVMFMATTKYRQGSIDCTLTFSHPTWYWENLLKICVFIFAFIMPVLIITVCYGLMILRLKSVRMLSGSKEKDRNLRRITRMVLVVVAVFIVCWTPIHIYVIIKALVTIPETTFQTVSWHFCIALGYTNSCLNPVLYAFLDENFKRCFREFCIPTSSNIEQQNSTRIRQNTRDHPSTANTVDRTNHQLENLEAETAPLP

Broadly, the Ki is the equilibrium dissociation constant of an inhibitor or competing ligand from its target. Read a low Ki as tighter binding. A word on the EC50: it is the concentration needed to bring the measured effect to its halfway point. A word on the Emax: it is the size of the effect at its maximum, as opposed to the concentration needed. Turning to `Cc1cc(O)cc(C)c1C[C@H](N)C(=O)N[C@H](CCCNC(=N)N)C(=O)N[C@H]1Cc2ccccc2CN(CC(=O)N[C@@H](CCCNC(=N)N)C(=O)N[C@@H](Cc2ccccc2)C(N)=O)C1=O` [KGFF01, H-Dmt-D-Arg-Aba-Gly-Arg-Phe-NH2], the Ki in assay [1] is 0.0012 ± 0.0005 µM; in assay [5] it was 0.057 ± 0.01 µM; in assay [6], 0.00059 ± 0.00021 µM. Moreover, the concentration for a half-maximal effect (EC50) was determined as 0.128 ± 0.023 µM in assay [2], 0.155 ± 0.025 µM in assay [3] and 0.0024 ± 0.001 µM in assay [4]. Moreover, the Emax in assay [2] turned out to be 95 ± 6%; in assay [3], 44 ± 8%; in assay [4] it was 101 ± 7%.

With `Cc1cc(O)cc(C)c1C[C@H](N)C(=O)N[C@H](CCCNC(=N)N)C(=O)N[C@H]1Cc2ccccc2CN(CC(=O)N[C@@H](CCCNC(=N)N)C(=O)N[C@@H](Cc2ccccc2)C(=O)O)C1=O` [KGFF02, H-Dmt-D-Arg-Aba-Gly-Arg-Phe-OH], the Ki was determined as 0.251 ± 0.025 µM in assay [1], 2.54 µM in assay [5] and 0.00059 ± 0.00015 µM in assay [6]. Besides, in assay [4], the EC50 was determined as 0.0015 ± 0.0007 µM. The maximum response (Emax) in assay [4] stood at 89 ± 2%.

Consider `Cc1cc(O)cc(C)c1C[C@H](N)C(=O)N[C@H](CCCNC(=N)N)C(=O)N[C@H]1Cc2ccccc2CN(CC(=O)N[C@@H](CCCN)C(=O)N[C@@H](Cc2ccccc2)C(N)=O)C1=O` [KGFF04, H-Dmt-D-Arg-Aba-Gly-Orn-Phe-NH2], for which the figures for the Ki in assay [1], in assay [5] and in assay [6] were 0.045 ± 0.008 µM, 0.78 ± 0.09 µM and 0.00067 ± 0.00029 µM, respectively. Also, the concentration giving a half-maximal response (EC50) in assay [2] was 0.963 ± 0.168 µM; in assay [3], greater than 10 µM; in assay [4], 0.0095 ± 0.0015 µM. For the same compound, the values for the maximal response (Emax) in assay [2], in assay [3] and in assay [4] were 67 ± 3%, 25 ± 4% and 70 ± 4%, respectively.

Turning to `Cc1cc(O)cc(C)c1C[C@H](N)C(=O)N[C@H](CCCNC(=N)N)C(=O)N[C@@H](Cc1ccccc1)C(=O)N[C@@H](CCCN)C(=O)N[C@@H](Cc1ccccc1)C(N)=O` [KGFF05, H-Dmt-D-Arg-Phe-Orn-Phe-NH2] (HELM PEPTIDE1{[Cc1cc(O)cc(C)c1C[C@H](N)C(=O)[*:2]].[dR].F.[Orn].F.[am]}$$$$V2.0), the Ki in assay [1] amounted to 0.36 ± 0.05 µM; in assay [5], 3.1 µM; in assay [6], 0.0032 ± 0.0011 µM. The EC50 in assay [4] is 0.0593 ± 0.0245 µM. The Emax in assay [4] is 94 ± 2%.

With `Cc1cc(O)cc(C)c1C[C@H](N)C(=O)N[C@@H](CCCNC(=N)N)C(=O)N[C@@H](Cc1ccccc1)C(N)=O` [KGFF06, H-Dmt-Arg-Phe-NH2] (HELM PEPTIDE1{[Cc1cc(O)cc(C)c1C[C@H](N)C(=O)[*:2]].R.F.[am]}$$$$V2.0), the Ki in assay [1] was 0.0159 ± 0.0018 µM; in assay [5], 0.147 ± 0.02 µM; in assay [6], 0.046 ± 0.022 µM. The EC50 in assay [4] was found to be 2.3 µM.

Regarding `Cc1cc(O)cc(C)c1C[C@H](N)C(=O)N[C@H](CCCNC(=N)N)C(=O)N[C@@H](Cc1ccccc1)C(N)=O` [KGFF07, H-Dmt-D-Arg-Phe-NH2] (HELM PEPTIDE1{[Cc1cc(O)cc(C)c1C[C@H](N)C(=O)[*:2]].[dR].F.[am]}$$$$V2.0), the Ki was 0.084 ± 0.026 µM in assay [1], 0.0118 ± 0.0036 µM in assay [5] and 0.00029 ± 0.00013 µM in assay [6]. Besides, the EC50 in assay [2] is 1.93 µM; in assay [3] it was 0.087 ± 0.007 µM; in assay [4] it was 0.0017 ± 0.0004 µM. The figures for the Emax in assay [2], in assay [3] and in assay [4] were 87 ± 2%, 84 ± 8% and 102 ± 2%, respectively.

For `Cc1cc(O)cc(C)c1C[C@H](N)C(=O)N[C@H](CCCNC(=N)N)C(=O)N[C@H]1Cc2ccccc2CN(CCC(=O)N[C@@H](CCCN2CCCCC2)C(=O)N[C@@H](Cc2ccccc2)C(N)=O)C1=O` [KGFF08, H-Dmt-D-Arg-Aba-β-Ala-Apa-Phe-NH2], the Ki in assay [1] was 0.0039 ± 0.0001 µM; in assay [6], 0.00094 ± 0.00019 µM. Besides, the EC50 in assay [2] came to 0.574 ± 0.129 µM; in assay [4], 0.0099 ± 0.002 µM. Besides, the results for the Emax in assay [2], in assay [3] and in assay [4] were 97 ± 2%, 23 ± 1% and 102 ± 3%, respectively.

In the case of `Cc1cc(O)cc(C)c1C[C@H](N)C(=O)N[C@@H](CCCN1CCCCC1)C(=O)N[C@@H](Cc1ccccc1)C(N)=O` [KGFF10, H-Dmt-Apa-Phe-NH2], the Ki is 2.1 µM in assay [1], greater than 10 µM in assay [5] and 0.068 ± 0.048 µM in assay [6]. Further, the EC50 in assay [4] was determined as 0.598 ± 0.035 µM. Moreover, the Emax in assay [4] amounted to 91 ± 10%.

Regarding `Cc1cc(O)cc(C)c1C[C@H](N)C(=O)N[C@@H](CCCN1CCC(Cc2ccccc2)CC1)C(=O)N[C@@H](Cc1ccccc1)C(N)=O` [KGFF11, H-Dmt-Bpa-Phe-NH2], the inhibition constant (Ki) in assay [1] was 0.406 ± 0.095 µM; in assay [5] it was 2.72 µM; in assay [6] it was greater than 10 µM. Also, in assay [4], the EC50 was greater than 10 µM.

Take `Cc1cc(O)cc(C)c1C[C@H](N)C(=O)N[C@H](CCCNC(=N)N)C(=O)N[C@H]1Cc2ccccc2CNC1=O` [KGFF12, H-Dmt-D-Arg-Aba-NH]: the Ki in assay [1] stood at 0.375 ± 0.108 µM; in assay [5], 2.49 µM; in assay [6], 0.00017 ± 5e-05 µM. For the same compound, the EC50 was greater than 10 µM in assay [2], greater than 10 µM in assay [3] and 0.0027 ± 0.0015 µM in assay [4]. In addition, the Emax in assay [2] stood at 32 ± 17%; in assay [3], 13 ± 3%; in assay [4] it was 103 ± 4%.

On to `CNC(=O)[C@H](Cc1ccccc1)NC(=O)[C@@H](CCCNC(=N)N)NC(=O)[C@@H](N)Cc1c(C)cc(O)cc1C` [KGFF13, H-Dmt-D-Arg-Phe-NHMe] (HELM PEPTIDE1{[Cc1cc(O)cc(C)c1C[C@H](N)C(=O)[*:2]].[dR].F.[CN[*:1]]}$$$$V2.0), for which the figures for the Ki in assay [1], in assay [5] and in assay [6] were 0.206 ± 0.047 µM, 0.147 ± 0.016 µM and 0.00011 ± 5e-05 µM, respectively. Moreover, the figures for the 50% effective concentration (EC50) in assay [2], in assay [3] and in assay [4] were greater than 10 µM, greater than 10 µM and 0.001 ± 0.0004 µM, respectively. Also, the Emax in assay [2] worked out at 68 ± 8%; in assay [3] it was 39 ± 2%; in assay [4], 97 ± 2%.

On to `Cc1cc(O)cc(C)c1C[C@H](N)C(=O)N[C@H](CCCNC(=N)N)C(=O)N[C@H]1Cc2ccccc2CN(CCC(=O)N[C@@H](CCCCNc2nc3ccccc3[nH]2)C(=O)N[C@@H](Cc2ccccc2)C(N)=O)C1=O` [KGFF14, H-Dmt-D-Arg-Aba-β-Ala-Lys(Bim)-Phe-NH2] (H-[Dmt][dR][X1]K(X2)F-NH2), for which the figures for the Ki in assay [1], in assay [5] and in assay [6] were 0.00415 ± 0.00135 µM, 0.00454 ± 1e-05 µM and 0.0016 ± 0.0003 µM, respectively. Also, the EC50 stood at 0.089 ± 0.007 µM in assay [2], 0.076 ± 0.026 µM in assay [3] and 0.0059 ± 0.0025 µM in assay [4]. In addition, the results for the Emax in assay [2], in assay [3] and in assay [4] were 73 ± 18%, 74 ± 1% and 99 ± 4%, respectively.

In the case of `Cc1cc(O)cc(C)c1C[C@H](N)C(=O)N[C@H](CCCNC(=N)N)C(=O)N[C@H]1Cc2ccccc2CN(CCC(=O)N[C@@H](CCCCNc2nc3ccccc3o2)C(=O)N[C@@H](Cc2ccccc2)C(N)=O)C1=O` [KGFF15, H-Dmt-D-Arg-Aba-β-Ala-Lys(Box)-Phe-NH2] (H-[Dmt][dR][X1]K(X3)F-NH2), the Ki worked out at 0.0096 ± 0.0006 µM in assay [1], 0.088 ± 0.008 µM in assay [5] and 0.0018 ± 0.0009 µM in assay [6]. Further, the EC50 in assay [2] was found to be 0.93 ± 0.21 µM; in assay [3], 1.02 µM; in assay [4] it was 0.0041 ± 0.0017 µM. Also, the values for the Emax in assay [2], in assay [3] and in assay [4] were 105 ± 15%, 51 ± 5% and 92 ± 13%, respectively.

As to `Cc1cc(O)cc(C)c1C[C@H](N)C(=O)N[C@H](CCCNC(=N)N)C(=O)N[C@H]1Cc2ccccc2CN(CCC(=O)N[C@@H](CCCCNc2nc3ccccc3s2)C(=O)N[C@@H](Cc2ccccc2)C(N)=O)C1=O` [KGFF16, H-Dmt-D-Arg-Aba-β-Ala-Lys(Bth)-Phe-NH2] (H-[Dmt][dR][X1]K(X4)F-NH2), the Ki in assay [1] was found to be 0.0104 ± 0.0023 µM; in assay [5] it was 0.08 ± 0.013 µM; in assay [6] it was 0.0026 ± 0.0013 µM. Besides, the figures for the EC50 in assay [2], in assay [3] and in assay [4] were 0.526 ± 0.012 µM, 0.273 ± 0.115 µM and 0.0062 ± 0.002 µM, respectively. Also, the maximal response (Emax) in assay [2] was 88 ± 12%; in assay [3], 51 ± 7%; in assay [4] it was 93 ± 6%.
